Data on 7 compounds can be found in article PMC7809260 (Scientific Reports, 2021).

Experiment [1] concerns U2OS-DAT cells. Kind of experiment: Effect of pretreatment alone on impedance, U2OS-DAT cells (xCELLigence). The experiment is classed as cell-based, human. Particulars: 10 µM, 1 h incubation.
For experiment [2], the system named is DAT. Particulars: cited from earlier work.
In experiment [3] the target is human dopamine transporter (DAT) (Homo sapiens, UniProt Q01959). Kind of experiment: TRACT assay, DAT inhibition in JumpIn-DAT cells (+dox). Particulars: dox-treated JumpIn-DAT cells, 10 µM inhibitor compared to vehicle-pretreated cells.
Experiment [4] has as its system DAT. Particulars: cited from earlier work. This is another data set of the same source.
In experiment [5] the test system is JumpIn-DAT cells. Kind of experiment: Effect of pretreatment alone on impedance, dox-treated JumpIn-DAT cells (xCELLigence). The format is cell-based, human. Particulars: 10 µM, 1 h.
In experiment [6] the test system is JumpIn-DAT cells. Put plainly: GPCR antagonist experiment, dopamine response in dox-treated JumpIn-DAT cells (xCELLigence). The experiment is classed as cell-based, human. The note with it: 1 µM antagonist 1 h, then 31.6 µM dopamine.
For experiment [7], the system named is non-transfected U2OS cells. Kind of experiment: GPCR antagonist experiment, dopamine-induced response in non-transfected U2OS cells (xCELLigence). The note with it: 1 µM antagonist 1 h, then 316 nM dopamine. The experiment is classed as cell-based, human. The procedure: Figure S1. Representative vehicle-corrected xCELLigence traces of GPCR antagonists in three cell lines. (a) Pretreatment of U2OS-DAT cells with 1 µM antagonist for 1 h. (b) […]
vehicle, 1 µM SCH23390 or raclopride for 1 h. ( c) Pretreatment of JumpIn-DAT cells in the (1 picture or pasted object on this page, not shown here)

Experiment [8] concerns U2OS-DAT cells. Kind of experiment: GPCR antagonist experiment, dopamine-induced cell response in U2OS-DAT cells (xCELLigence). The format is cell-based, human. Particulars: 1 µM antagonist 1 h, then 10 µM dopamine. The procedure:
Impedance was measured overnight every 15 min.

Experiment [9] has as its system JumpIn-DAT cells. Kind of experiment: cells. Particulars: Homo sapiens.
For experiment [10], the target named is T1, DAT (Homo sapiens, UniProt Q01959).
T1 construct: host or cells: U2OS, transient PEI transfection of pcDNA3.1(+)-DAT; whole cells or membranes
Put plainly: [3H]WIN35,428 saturation binding assay.

The structures appear in SMILES notation. Where a name gives a salt, the structure may show the parent alone. Read-outs that look alike come from different tables or passages of the source.

T1 sequence (Q01959 whole entry): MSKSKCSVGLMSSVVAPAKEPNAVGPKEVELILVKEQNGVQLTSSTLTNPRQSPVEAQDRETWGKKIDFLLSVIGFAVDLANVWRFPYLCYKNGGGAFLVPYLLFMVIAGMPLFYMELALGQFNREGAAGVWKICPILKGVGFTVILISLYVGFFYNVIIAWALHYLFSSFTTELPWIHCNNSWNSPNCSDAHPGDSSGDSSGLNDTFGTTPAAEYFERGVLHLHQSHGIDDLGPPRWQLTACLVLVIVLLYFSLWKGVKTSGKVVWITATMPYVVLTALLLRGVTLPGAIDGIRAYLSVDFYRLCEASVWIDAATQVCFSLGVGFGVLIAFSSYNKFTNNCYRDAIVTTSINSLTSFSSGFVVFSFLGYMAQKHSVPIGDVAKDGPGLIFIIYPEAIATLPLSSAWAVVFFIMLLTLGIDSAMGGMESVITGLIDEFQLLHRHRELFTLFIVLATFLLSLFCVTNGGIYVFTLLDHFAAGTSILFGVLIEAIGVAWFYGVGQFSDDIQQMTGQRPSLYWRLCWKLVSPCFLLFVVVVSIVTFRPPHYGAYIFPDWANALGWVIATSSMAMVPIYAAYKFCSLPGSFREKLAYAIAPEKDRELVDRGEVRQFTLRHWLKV
human dopamine transporter (DAT), sequence (Q01959 whole entry): as above

For `Cl.Cl.Fc1ccc(C(OCCN2CCN(CCCc3ccccc3)CC2)c2ccc(F)cc2)cc1` [GBR12909, GBR12909 dihydrochloride], the “effect of pretreatment itself on impedance” value in [1] is “did not substantially affect impedance”. The “pIC50, MPP+-induced toxicity inhibition” value in [2] was 7.0. Besides, the “enhancement of the apparent potency of dopamine by DAT inhibitor” value in [3] is listed as “twofold”. Moreover, the “affinity for DAT” value in [4] is listed as “low nanomolar”. The “effect of pretreatment on its own on impedance” value in experiment [5] is reported as “did not substantially affect impedance over time”.
For the compound `CN1CCc2cc(Cl)c(O)cc2[C@@H](c2ccccc2)C1` [SCH23390, SCH23390 hydrochloride], the “effect on dopamine response” value in experiment [6] is “not affected”. Moreover, the “effect on dopamine-induced response” value in experiment [7] is listed as “eliminated the dopamine-induced response”. Further, in experiment [8], the “effect on dopamine-induced cell response” value is “completely abolish”.
For the compound `COC(=O)[C@H]1[C@@H](OC(=O)c2ccccc2)C[C@@H]2CC[C@H]1N2C.Cl` [Cocaine, Cocaine hydrochloride], the “enhancement of the apparent potency of dopamine by DAT inhibitor” value in experiment [3] is “threefold”. Besides, the “effect of pretreatment on its own on impedance” value in experiment [5] is reported as “did not substantially affect impedance over time”.
On to `NCCc1ccc(O)c(O)c1` [Dopamine, dopamine hydrochloride], for which the EC50 was 7.94 µM in [9] (0.5 h, read-out: pEC50 ± SEM (apparent potency of dopamine), JumpIn-DAT –dox (converted), fixed pseudo-Hill slope of 1, net AUC first 30 min); 26 µM in experiment [9] (read-out: EC50 in µM, JumpIn-DAT +dox pretreated 1 h with 10 µM GBR12909, fixed pseudo-Hill slope of 1); 13 µM in experiment [9] (read-out: EC50 in µM, JumpIn-DAT +dox pretreated 1 h with 10 µM cocaine, fixed pseudo-Hill slope of 1); 8 µM in experiment [9] (read-out: EC50 in µM, JumpIn-DAT –dox, fixed pseudo-Hill slope of 1); 50.1 µM in [9] (read-out: pEC50 ± SEM (apparent potency of dopamine), JumpIn-DAT +dox (1 µg/ml), vehicle-pretreated (converted), fixed pseudo-Hill slope of 1); 25.1 µM in experiment [9] (read-out: pEC50 ± SEM (apparent potency of dopamine), JumpIn-DAT +dox pretreated 1 h with 10 µM GBR12909 (converted), fixed pseudo-Hill slope of 1). Besides, the EC50 in experiment [9] (read-out: pEC50 ± SEM (apparent potency of dopamine), JumpIn-DAT +dox pretreated 1 h with 10 µM cocaine (converted), fixed pseudo-Hill slope of 1) is 12.6 µM; in experiment [9] (read-out: pEC50 ± SEM (variable slope), JumpIn-DAT +dox (converted), variable slope model) it was 31.6 µM; in experiment [9] (read-out: pEC50 ± SEM (variable slope), JumpIn-DAT +dox + 10 µM GBR12909 (converted), variable slope model), 31.6 µM; in experiment [9] (read-out: pEC50 ± SEM (variable slope), JumpIn-DAT +dox + 10 µM cocaine (converted), variable slope model) it was 20 µM.
For `CCN1CCC[C@H]1CNC(=O)c1c(O)c(Cl)cc(Cl)c1OC` [raclopride], in experiment [7], the “effect on dopamine-induced response” value is “not”.
Regarding `COC(=O)[C@@H]1[C@H]2C[C@H]3c4[nH]c5ccccc5c4CCN3C[C@@H]2CC[C@@H]1O` [yohimbine, Yohimbine hydrochloride], the “effect on dopamine response” value in [6] is listed as “significantly reduced”.
Turning to `[3H]CN1[C@H]2CC[C@@H]1[C@@H](C(=O)OC)[C@@H](c1ccc(F)cc1)C2` [[^3H]WIN35,428, [^3H]-2β-carbomethoxy-3β-(4-fluorophenyl)-tropane], the “Bmax (total amount of binding sites)” value in experiment [10] (U2OS-DAT membranes) is 1.6 ± 0.2 pmol/mg protein. In [10] (U2OS-mock membranes), the specific binding result is reported as “No specific binding”.
